# From patent US20110166079A1, “METHODS OF TREATING CANCER WITH APOE PEPTIDES” (COGNOSCI, INC., priority 2008, published 2011)
# Assays:
# PP2A = PP2A activity in K562 CML cells (immunoprecipitation / phosphate release); format: cell-based; conditions: COG112 0.5 μM or 1 μM, 24 hours, FIG. 8B
# ERK, Akt, IκK and NFκB = test: Immunoblotting of phospho- and total ERK, Akt, IκK and NFκB in B-CLL cells; format: cell-based, human; conditions: 2 μM COG112, 3 hours, relative to untreated cells
# Excerpt: The results of the two previous series of experiments indicate that SET overexpression in CLL cells results in decreased PP2A activity which contributes to the persistence of an anti-apoptotic state in these cells. COG peptides, such as COG112, can induce apoptosis in CLL cells, which may occur through the binding of COG peptides to the SET protein, thereby relieving the suppression of PP2A activity. To further elucidate the mechanism of the cytotoxic effect of COG peptides on CLL cells, the effect of COG112 treatment on the phosphorylation state of key signal transduction proteins and PP2A activity in B-CLL cells is evaluated. […]
# Immunoblotting is performed on the extracts from COG112 treated and untreated CLL cells to determine the relative levels of phospho-and total-(phosphorylated plus non-phosphorylated) ERK, Akt, IκK and NFκB. Specifically, cell extracts obtained by the method above will be analyzed to determine the protein concentration of each lysate using the BCA assay kit (Pierce). […] Protein bands are visualized and quantitated using an Odyssey Infrared scanner (LiCor). This method allows for simultaneous quantitation of the phospho-Akt using the emission of the 800 nm channel and of the total Akt using the emission of the 680 nm channel. Following the initial read, a rabbit anti-β-Actin antibody is incubated with the membrane for 1 hour and the membrane is washed. […]
# Eμ-TCL1 transgenic mice = test: CLL in Eμ-TCL1 transgenic mice treated with COG112; format: in vivo, mouse
# Excerpt: In the Eμ-TCL1 transgenic mouse model, the TCL1 gene is placed under control of a B-cell-specific IgVH promoter and IgH-Eμ enhancer. These mice develop normally into adulthood but later develop enlarged spleens, livers, and lymph nodes that are accompanied by high blood lymphocyte counts. The mice eventually die prematurely as the leukemic cells accumulate along with development of advanced lymphoadenopathy Importantly, the accumulated B-cells in these transgeneic TCL1 mice are G0-1 arrested and express CD19+/CD5+/IgM+ just as the human CLL cells (Bichi et al. (2002) Proc Natl Acad Sci USA, Vol. 99: 6955-6960). As further validation of these Eμ-TCL1 transgenic mice as an effective model of human CLL, CLL symptoms in the TCL1 transgenic mice improve following administration of fludarabine, a clinically used anti-CLL therapeutic. […] The effect of COG112 on CLL cell production and life expectancy in the Eμ-TCL1 transgenic mouse model of CLL is evaluated.
# Animals (n=6) are treated with either 10 mg/kg of COG112 or a vehicle control daily by subcutaneous injection. After 15 days of treatment, blood is collected by retro-orbital bleeds and white bloods cells quantitated. White-blood cell counts are expected to be reduced in COG112-treated animals relative to the vehicle controls.
# At the initiation of treatment, blood is drawn to determine baseline CD5+/CD19+ CLL cell counts and groups of animals (n=20) are treated with a vehicle control (lactated Ringer's solution) or COG112 at doses of 4.0, 1.0, or 0.25 mg/kg. COG112 or the vehicle control is delivered by intraperitoneal injection at a volume of 10 mL/kg. Animals receive injections daily Monday through Friday so that 5 doses are administered per week for 5 weeks (35 days of total treatment). Disease course is monitored by survival, total blood leukocyte and lymphocyte count, and CD19+/CD5+ cell count weekly.
# Blood is collected from each mouse on a weekly basis by retro-orbital bleeds for determination of total blood leukocyte and lymphocyte counts as well as CD19+/CD5+ cell counts to assess the leukemia burden. After 5 weeks (35 days of treatment), mice are euthanized and the post treatment leukemia burden is measured by cell counting, spleen weight, and histological analysis of bone marrow, spleen, liver, and lymph nodes.
# [1] = 4.0, 1.0 or 0.25 mg/kg intraperitoneal, 5 weeks, versus vehicle
substance,measurement,setting,value
Ac-RQIKIWFQNRRMKWKKCLRVRLASHLRKLRKRLL-NH2 (N-terminus and C-terminus assumed) [COG112],PP2A activity,PP2A,robust activation
same,"quantity of phosphorylated proteins (ERK, Akt, IκK, NFκB)","ERK, Akt, IκK and NFκB",significant reduction
same,white-blood cell counts,"Eμ-TCL1 transgenic mice; 10 mg/kg daily subcutaneous, 15 days, relative to vehicle",reduced
same,CD19+/CD5+ cell counts,Eμ-TCL1 transgenic mice; [1],dose-dependent reduction
same,CLL burden by histological analysis,Eμ-TCL1 transgenic mice; [1],dose-dependent reduction
same,cumulative survival,Eμ-TCL1 transgenic mice; [1],dose-dependent increase
same,spleen weight,Eμ-TCL1 transgenic mice; [1],dose-dependent reduction
